Laboratory results: US6748954B2, “Drug release from polymer matrices through mechanical stimulation” (The Regents of The University of Michigan, priority 2000, dated 2004)

Test: in vitro release of trypan blue from alginate hydrogel disks with or without compression
Assay type: physicochemical
Experimental: In a first in vitro experiment, alginate hydrogels were prepared comprising 10 g PROTANAL, 4 mg trypan blue (Sigma Chemical) as a model drug molecule, and 63 mg CaSO4 (Sigma Chemical). The hydrogels were cut into disks of approximately 12.7 mm diameter and approximately 2 mm thick, and thereafter swollen overnight in the commercially available Dulbecco's Modified Eagle's Medium (DMEM). The hydrogel disks so prepared were next placed in custom-made sample holders of 13 mm diameter and 30 mm length. Porous stainless steel supports were provided on both the top and bottom of each hydrogel disk to permit release of the trypan blue drug during compression of the hydrogels.
The results of this first, in vitro experiment are shown in FIG. 1, which figure comprises an upper chart graphically depicting the mechanical stimulation cycle of compression/relaxation relative to a lower chart graphically depicting the release of the trypan blue drug from the mechanically stimulated hydrogels (line A). The control, non-compressed hydrogels are also depicted in this lower chart (line B).

Cc1cc(-c2ccc(/N=N/c3c(S(=O)(=O)O)cc4cc(S(=O)(=O)O)cc(N)c4c3O)c(C)c2)ccc1/N=N/c1c(S(=O)(=O)O)cc2cc(S(=O)(=O)O)cc(N)c2c1O [trypan blue]
effect of compression on trypan blue release (compressed (A) versus non-compressed (B) hydrogels): did not significantly alter
release of the trypan blue drug from the compressed hydrogels (compressed hydrogels (line A), three compression/relaxation cycles, 10% maximum compressive strain, DMEM-swollen): increased steadily
